Measured values as given in the supplement of paper PMC11061612.

What was measured:
Assay in all cases: Bliss excess, mean over the matrix (fraction); higher = more synergy
[1] = tested on: CCRF-CEM (T-Lymphoblastic Leukemia)
Outline: (§1)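 Bliss excess equals the observed combination effect minus the expected value EA + EB − EA·EB, where EA and EB are the effects of each agent alone. Combination Emax is the second-highest inhibition within the matrix. Inhibition was scaled from CellTiter-Glo 2.0 luminescence, with 0 set by vehicle wells and 1 by blank wells, after 72 hours of two-drug dosing of cells plated in 1536-well plates.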

[2] = tested on: Ramos-2G6-4C10 (Burkitt's Lymphoma)
Outline: as §1

[3] = tested on: EC-GI-10 (Esophageal Squamous Cell Carcinoma)
Outline: as §1

[4] = tested on: Daoy (Other Solid Carcinomas)
Outline: as §1

[5] = tested on: B-CPAP (Thyroid Gland Carcinoma)
Outline: as §1

[6] = tested on: KP-1N (Pancreatic Carcinoma)
Outline: as §1

[7] = tested on: COLO-205 (Colorectal Carcinoma)
Outline: as §1

[8] = tested on: CaR-1 (Colorectal Carcinoma)
Outline: as §1

[9] = tested on: HCC-78 (Lung Adenocarcinoma)
Outline: as §1

[10] = tested on: Calu-3 (Lung Adenocarcinoma)
Outline: as §1

HOS (Osteosarcoma) = tested on: HOS (Osteosarcoma)
Outline: as §1

[11] = tested on: LNCaP-Clone-FGC (Prostate Carcinoma)
Outline: as §1

[12] = tested on: MFE-296 (Endometrial Carcinoma)
Outline: as §1

[13] = tested on: HO-1-N-1 (Oral Cavity Carcinoma)
Outline: as §1

[14] = tested on: KYSE-520 (Esophageal Squamous Cell Carcinoma)
Outline: as §1

[15] = tested on: TE-9 (Esophageal Squamous Cell Carcinoma)
Outline: as §1

AGS (Gastric Carcinoma) = tested on: AGS (Gastric Carcinoma)
Outline: as §1

[16] = tested on: HT-1376 (Bladder Carcinoma)
Outline: as §1

[17] = tested on: SNU-5 (Gastric Carcinoma)
Outline: as §1

[18] = tested on: TCCSUP (Bladder Carcinoma)
Outline: as §1

| Compound | Bliss excess [1] | Bliss excess [2] | Bliss excess [3] | Bliss excess [4] | Bliss excess [5] | Bliss excess [6] | Bliss excess [7] | Bliss excess [8] | Bliss excess [9] | Bliss excess [10] | Bliss excess (HOS (Osteosarcoma)) | Bliss excess [11] | Bliss excess [12] | Bliss excess [13] | Bliss excess [14] | Bliss excess [15] | Bliss excess (AGS (Gastric Carcinoma)) | Bliss excess [16] | Bliss excess [17] | Bliss excess [18] |
| --- | --- | --- | --- | --- | --- | --- | --- | --- | --- | --- | --- | --- | --- | --- | --- | --- | --- | --- | --- | --- |
| Cc1cc2ncnn2cc1Nc1ncc2c(n1)n(C1CCOCC1)c(=O)n2C [AZD7648] + O=C(c1cc(Cc2n[nH]c(=O)c3ccccc23)ccc1F)N1CCN(C(=O)C2CC2)CC1 [Olaparib] (first compound max 10 µM, 7x7, partner max 10 µM) | -0.0213 | -0.0281 | -0.0478 | -0.0102 | -0.0034 | 0.0211 | -0.0345 | -0.0399 | -0.0133 | -0.0351 | 0.0023 | -0.0049 | -0.0255 | 0.0099 | -0.0138 | -0.0264 | -0.007 | -0.0549 | -0.0316 | -0.0465 |
| NC1(C(=O)N[C@@H](CCO)c2ccc(Cl)cc2)CCN(c2ncnc3[nH]ccc23)CC1 [Capivasertib] + CC(=O)c1c(C)c2cnc(Nc3ccc(N4CCNCC4)cn3)nc2n(C2CCCC2)c1=O [Palbociclib] (first compound max 10 µM, 7x7, partner max 10 µM) | 0.0861 | -0.0512 | -0.0056 | 0.0306 | -0.046 | 0.0023 | 0.0317 | 0.0034 | -0.0134 | 0.0775 | 0.0023 | 0.0242 | -0.0349 | 0.026 | -0.0342 | -0.0271 | 0.0794 | -0.0388 | -0.0253 | 0.0372 |
| NC1(C(=O)N[C@@H](CCO)c2ccc(Cl)cc2)CCN(c2ncnc3[nH]ccc23)CC1 [Capivasertib] + CC(C)n1c(=O)n(C)c2cnc3cc(F)c(-c4ccc(OCCCN5CCCCC5)nc4)cc3c21 [AZD1390] (first compound max 10 µM, 7x7, partner max 0.3 µM) | -0.0847 | -0.0205 | -0.0418 | -0.0281 | -0.0897 | -0.0767 | -0.0605 | -0.0401 | -0.0434 | -0.0016 | -0.0278 | -0.0681 | -0.0695 | 0.0055 | -0.0364 | -0.0431 | -0.108 | -0.0399 | -0.0708 | -0.084 |
| NC1(C(=O)N[C@@H](CCO)c2ccc(Cl)cc2)CCN(c2ncnc3[nH]ccc23)CC1 [Capivasertib] + CCN(CCO)CCCOc1ccc2c(Nc3cc(CC(=O)Nc4cccc(F)c4)[nH]n3)ncnc2c1 [AZD2811] (first compound max 10 µM, 7x7, partner max 1 µM) | 0.0001 | 0.139 | 0.06 | 0.0146 | -0.0298 | -0.0423 | -0.0551 | -0.0236 | -0.015 | 0.0092 | -0.0107 | 0.006 | -0.0593 | -0.046 | -0.0495 | -0.0124 | 0.0129 | -0.0314 | -0.0103 | -0.0397 |
| NC1(C(=O)N[C@@H](CCO)c2ccc(Cl)cc2)CCN(c2ncnc3[nH]ccc23)CC1 [Capivasertib] + COc1nnc2ccc(N3CCC(c4ccc(OCCN5CCN(C)C(=O)[C@H]5C)cc4)CC3)nn12 [AZD5153] (first compound max 10 µM, 7x7, partner max 1 µM) | 0.058 | 0.0722 | 0.0434 | 0.0494 | 0.062 | 0.0274 | 0.0237 | 0.0378 | 0.0193 | 0.0283 | 0.041 | -0.0071 | 0.0901 | 0.0214 | -0.0509 | 0.0567 | 0.0228 | -0.0317 | 0.0149 | 0.0311 |
| NC1(C(=O)N[C@@H](CCO)c2ccc(Cl)cc2)CCN(c2ncnc3[nH]ccc23)CC1 [Capivasertib] + C[C@@H]1COCCN1C2=NC(=NC(=C2)C3(CC3)[S@](=N)(=O)C)C4=C5C=CNC5=NC=C4 [AZD6738] (first compound max 10 µM, 7x7, partner max 10 µM) | 0.0092 | 0.0183 | -0.0804 | -0.0462 | -0.0465 | -0.0824 | 0.0092 | -0.0194 | -0.0239 | -0.0381 | -0.0463 | 0.0099 | -0.0508 | -0.0027 | -0.0371 | -0.0415 | -0.0449 | -0.0153 | -0.0375 | -0.0312 |
| NC1(C(=O)N[C@@H](CCO)c2ccc(Cl)cc2)CCN(c2ncnc3[nH]ccc23)CC1 [Capivasertib] + Cn1cnc2c(F)c(Nc3ccc(Br)cc3Cl)c(C(=O)NOCCO)cc21 [Selumetinib] (first compound max 10 µM, 7x7, partner max 10 µM) | 0.0792 | -0.0166 | 0.0744 | 0.0225 | 0.0496 | 0.0357 | -0.0598 | 0.0076 | -0.009 | 0.0295 | 0.0007 | -0.0143 | -0.0133 | 0.105 | -0.042 | -0.0011 | 0.0697 | -0.0149 | 0.0345 | -0.0385 |
| Cc1nc(Nc2ncc(C(=O)Nc3c(C)cccc3Cl)s2)cc(N2CCN(CCO)CC2)n1 [Dasatinib] + CC(=O)Nc1cccc(-n2c(=O)n(C3CC3)c(=O)c3c(Nc4ccc(I)cc4F)n(C)c(=O)c(C)c32)c1 [Trametinib] (first compound max 2 µM, 7x7, partner max 1 µM) | -0.0032 | 0 | -0.0871 | 0.0053 | -0.0158 | 0.0493 | -0.128 | -0.0711 | -0.0361 | 0.0074 | -0.0361 | -0.0361 | -0.0328 | 0.0676 | -0.0902 | -0.0104 | 0.0433 | 0.0158 | -0.0708 | -0.0443 |
